Measurements taken from patent US9855273B2, “Combination therapy for MDS” (priority 2013, dated 2018).
Like-named read-outs stand apart in the source and are kept apart here.

Columns and labels:
MDS patient marrow cells [1] = conditions: 48 hrs
Protocol: (§1) Annexin V analysis was carried out as previously described (Fang et al., 2012). Cells were stained after either drug treatment or lentiviral transduction with Annexin V (eBioscience) and propidium iodide (Sigma-Aldrich), or 7AAD (eBioscience) according to the manufacturer's instructions. Analysis was performed using BD FACSCalibur or FACSCanto flow cytometer with either CellQuest or Diva software. For in vitro growth assays, cell expansion in liquid culture was determined based on trypan blue exclusion using an automated cell counter (BioRad TC10). For experiments beyond 48 hrs, cells were replenished with fresh media and drug every second day. For primary patient marrow cells, cell were treated with a single inhibitor dose and counted 24 and 48 hours later. NF-κB DNA-binding assay Nuclear lysates were isolated from treated cells as previously described (Starczynowski et al., 2011). NF-κB (p65) DNA binding was measured using an ELISA-based assay according to the manufacturer's recommendations (KHO0371, Invitrogen)

NF-κB (RelA/p65) = conditions: MDS/AML cell lines (THP1, HL60), 10 μM, 24 hrs
Protocol: as §1

[2] = tested on: MDS/AML cell lines (MDSL, TF1, THP1, HL60); experiment: Viable cell growth (trypan blue exclusion) of MDS/AML cell lines; type: cell-based, human
Protocol: Acute myeloid leukemic cell lines, HL60, THP1, and TF-1 were purchased from the American Type Culture Collection. MOLM13 were purchased from AddexBio. The myelodysplastic cell line, MDS-L, was provided by Dr. Kaoru Tohyama (Kawasaki Medical School, Okayama, Japan) (Matsuoka et al., 2010). […] Additionally, both the MDSL and TF-1 cell lines were cultured in the presence of 10 ng/mL human recombinant IL-3 (Stemcell Technologies).

[3] = tested on: normal cord blood-derived CD34+ cells; experiment: Growth and viability of normal CD34+ cells; type: cell-based, human; conditions: even high doses
Protocol: Acute myeloid leukemic cell lines, HL60, THP1, and TF-1 were purchased from the American Type Culture Collection. MOLM13 were purchased from AddexBio. The myelodysplastic cell line, MDS-L, was provided by Dr. Kaoru Tohyama (Kawasaki Medical School, Okayama, Japan) (Matsuoka et al., 2010). Cell-lines were cultured in RPMI 1640 medium with 10% FBS and 1% penicillin-streptomycin. Additionally, both the MDSL and TF-1 cell lines were cultured in the presence of 10 ng/mL human recombinant IL-3 (Stemcell Technologies). […] Human CD34+ UCB cells and primary MDS/AML cells were maintained in StemSpan Serum-Free Expansion Media (Stemcell Technologies) supplemented with 10 ng/mL of recombinant human stem cell factor (SCF), Flt3 ligand (Flt3L), thrombopoietin (TPO), IL-3, and IL-6 (Stemcell Technologies).

MDS/AML cell lines = experiment: AnnexinV apoptosis staining of MDS/AML cell lines; type: cell-based, human; conditions: all cell lines, 48 hrs of treatment, 10 μM
AML patient cells = experiment: Colony formation in methylcellulose, primary AML cells; type: cell-based, human
Description: (§4) We evaluated marrow cells from 7 MDS and 3 AML patient samples with various cytogenetic features to determine whether IRAK1 inhibition is also effective in primary patient cells (Table S1). […] Since MDS and AML stem/progenitor cells are clonal and the disease-propagating cells form colonies in methylcellulose, we also evaluated the effects of IRAK-Inh on colony formation.

MDSL cells [4] = experiment: MDSL xenograft, cells pre-treated in vitro, NSG mice; type: in vivo
Protocol: (§2) Xenograftment of NOD/SCID-IL2Rγ(NSG) and NSG-hSCF/hGM-CSF/hIL3 (NSGS) MDSL cells (1×10^6-5×10^6) were injected into the tail veins of 8-week old sublethally irradiated ([…]) NSG or NSG animals engineered to express human SCF, GM-CSF, and IL3 (NSGS) as previously described (Wunderlich et al., 2010). Mice were monitored by performing complete blood counts (Drew Hemavet 950FS). Following red cell lysis, human MDSL cells were identified by hCD45-FITC staining. In vivo delivery of IRAK-Inh approach is adapted from previous reports (Yang et al., 2011): IRAK-Inh was diluted in DMSO (5 mM) and further dissolved in sterile phosphate buffered saline (PBS; pH 7.2). Animals were injected i.p. with 2.12 mg/kg IRAK-Inh 3× weekly.
(§3) To determine whether IRAK-Inh can delay human MDS-like disease in vivo, MDSL were pre-treated with IRAK-Inh (10 μM) for 24 hrs in vitro and subsequently injected intravenously (i.v.) into NSG (5×10^6 cells) and NSGS (1×10^6 cells) recipient mice (FIG. 4A). This approach permitted us to evaluate the cell autonomous effect of IRAK-Inh on MDS cell viability and engraftment without altering endogenous IRAK1 function in the mouse.

MDSL cells [5] = experiment: MDSL xenograft, in vivo i.p. delivery after engraftment, NSG mice
Protocol: as §2
as §3, with “mouse. […] In addition, the human MDSL graft was reduced from 8% to 2% (FIG. 4D). Morphological assessment confirmed normal RBC and reduced MDS grafts in the peripheral blood and marrow of mice transplanted with IRAK-Inh-treated MDSL cells (FIG. 4E). […]” for “mouse.”

IRAK1 = IRAK1 (Homo sapiens, UniProt P51617); conditions: Powers et al., 2006, cited from earlier work
Lck = Lck (Homo sapiens, UniProt P06239); conditions: read-out: IC50 Lck; Powers et al., 2006; cited from earlier work
MDS patient marrow cells [6] = experiment: Colony formation in methylcellulose, primary MDS marrow cells; conditions: continuously treated or briefly exposed
Description: as §4

IRAK1, sequence (P51617 whole entry, species assumed): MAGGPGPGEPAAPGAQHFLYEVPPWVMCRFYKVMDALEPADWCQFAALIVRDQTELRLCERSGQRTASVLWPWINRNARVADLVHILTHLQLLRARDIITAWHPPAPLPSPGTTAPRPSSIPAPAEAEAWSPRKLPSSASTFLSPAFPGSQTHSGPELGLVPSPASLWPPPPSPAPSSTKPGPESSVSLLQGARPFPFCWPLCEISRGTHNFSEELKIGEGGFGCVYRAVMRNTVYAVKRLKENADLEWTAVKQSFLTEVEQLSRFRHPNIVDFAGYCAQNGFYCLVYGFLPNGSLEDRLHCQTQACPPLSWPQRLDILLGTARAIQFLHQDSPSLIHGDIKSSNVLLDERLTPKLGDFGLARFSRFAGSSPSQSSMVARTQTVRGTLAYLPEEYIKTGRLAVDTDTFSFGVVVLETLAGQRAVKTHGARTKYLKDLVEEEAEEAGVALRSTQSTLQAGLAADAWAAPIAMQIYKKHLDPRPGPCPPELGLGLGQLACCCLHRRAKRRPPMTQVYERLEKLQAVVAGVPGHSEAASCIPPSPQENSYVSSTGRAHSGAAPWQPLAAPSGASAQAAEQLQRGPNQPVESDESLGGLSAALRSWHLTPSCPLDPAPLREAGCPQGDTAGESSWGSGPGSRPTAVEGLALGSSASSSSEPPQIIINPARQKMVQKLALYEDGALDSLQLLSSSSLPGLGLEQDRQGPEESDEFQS
Lck, sequence (P06239 whole entry, species assumed): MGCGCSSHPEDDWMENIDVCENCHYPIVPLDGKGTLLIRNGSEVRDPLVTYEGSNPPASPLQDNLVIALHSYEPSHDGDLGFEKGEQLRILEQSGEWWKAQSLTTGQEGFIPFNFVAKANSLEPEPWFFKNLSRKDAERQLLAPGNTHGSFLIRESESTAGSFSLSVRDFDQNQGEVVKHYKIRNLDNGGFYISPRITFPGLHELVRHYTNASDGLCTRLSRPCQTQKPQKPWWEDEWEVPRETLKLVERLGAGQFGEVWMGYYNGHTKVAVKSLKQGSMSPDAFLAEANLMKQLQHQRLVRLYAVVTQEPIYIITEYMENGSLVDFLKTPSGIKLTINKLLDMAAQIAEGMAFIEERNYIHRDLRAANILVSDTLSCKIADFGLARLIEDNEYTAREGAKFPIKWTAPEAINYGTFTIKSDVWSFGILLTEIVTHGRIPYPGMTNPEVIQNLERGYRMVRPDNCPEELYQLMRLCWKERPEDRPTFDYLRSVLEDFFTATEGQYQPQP

O=C(Nc1nc2ccccc2n1CCN1CCOCC1)c1cccc([N+](=O)[O-])c1 [IRAK-Inh, N-(2-morpholinylethyl)-2-(3-nitrobenzoylamido)-benzimidazole]
expansion of MDS marrow cells (MDS patient marrow cells [1]): failed to expand
apoptotic cells in MDS marrow cells (MDS patient marrow cells [1]; except for MDS-07): increased levels of apoptotic cells
DNA bound and active RelA/p65 decreased by (NF-κB (RelA/p65)): ~50%
viability of HL60 cells ([2]; HL60): only modestly reduced
sensitivity of HL60 cells ([2]; HL60, IRAK-Inh 10 μM, ABT-263 0.1 μM, alone or combined): refractory
MDS/AML cell line growth and survival ([2]; IRAK-Inh 10 μM, ABT-263 0.1 μM, alone or co-treatment): modest effects
cell proliferation ([2]; MDSL, TF1 and THP1, 0-10 μM, up to 6 days): dose-dependent impairment
proliferation of normal CD34+ cells [3]: not affected
apoptosis (MDS/AML cell lines): modest increase in apoptosis
AML progenitor function (AML patient cells): did not affect
leukemic progenitor function of AML patient cells (AML patient cells; IRAK-Inh 10 μM, ABT-263 0.1 μM): not sensitive
median survival (MDSL cells [4]; MDSL pre-treated 10 μM 24 hrs, 5×10^6 cells i.v., control 68 days): 80 days
human MDSL graft (MDSL cells [4]; peripheral blood, 28 days post-transplant, control 8%): 2%
HCT and Hb levels (MDSL cells [5]; 2.12 mg/kg i.p. 3×/week from day 6): maintained HCT and Hb levels
human graft in peripheral blood (hCD45) (MDSL cells [5]; within ~7 days of receiving 2.12 mg/kg i.p. 3×/week): reduced human graft in the peripheral blood
IC50 (IRAK1; read-out: IC50 IRAK1, FIG. 9A legend): 300 nM
IC50 (IRAK1; read-out: IC50 IRAK1 kinase activity, Wang et al., 2009): 750 nM
IC50 (Lck): > 10000 nM
colony formation of MDS marrow cells (MDS patient marrow cells [6]): significantly fewer colonies
